Source: US20160184274A1, “Methods for inhibiting mesenchymal phenotype after epithelial-to-mesenchymal transition” (Fibrostatin, S.L., priority 2014, published 2016)
Entries after “also recorded” stand apart in the source; their conditions may differ.

Assays:
[1] = target: T1, trimeric intracellular GPBP (Homo sapiens, UniProt Q9Y5P4); experiment: In vitro phosphorylation assay with trimeric intracellular GPBP; assay type: biochemical; conditions: T12 50 μM; autophosphorylation, γ[32P]ATP; FIG. 2
T1 construct: made in house; host or cells: Sf9 insect cells (baculovirus), purified from cell lysates
T1 sequence (Q9Y5P4 1-624): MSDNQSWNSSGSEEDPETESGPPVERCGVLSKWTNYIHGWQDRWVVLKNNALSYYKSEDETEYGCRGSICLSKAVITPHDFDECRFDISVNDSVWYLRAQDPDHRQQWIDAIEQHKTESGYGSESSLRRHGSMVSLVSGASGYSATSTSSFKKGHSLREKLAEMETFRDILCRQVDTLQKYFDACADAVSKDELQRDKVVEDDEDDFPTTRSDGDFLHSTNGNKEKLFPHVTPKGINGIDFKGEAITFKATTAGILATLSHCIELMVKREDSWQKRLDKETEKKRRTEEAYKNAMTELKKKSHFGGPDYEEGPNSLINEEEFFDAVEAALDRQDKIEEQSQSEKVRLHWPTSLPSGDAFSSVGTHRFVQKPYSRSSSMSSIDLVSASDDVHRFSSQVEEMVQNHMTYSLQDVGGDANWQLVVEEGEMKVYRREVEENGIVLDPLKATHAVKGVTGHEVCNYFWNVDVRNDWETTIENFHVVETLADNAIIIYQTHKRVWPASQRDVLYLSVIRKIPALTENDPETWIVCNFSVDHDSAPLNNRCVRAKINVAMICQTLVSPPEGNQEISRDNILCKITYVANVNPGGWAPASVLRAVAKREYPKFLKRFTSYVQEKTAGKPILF
Protocol: FIG. 2. […] Multimeric extracellular and trimeric intracellular GPBP were purified by affinity chromatography and subsequent gel filtration chromatography, and used for in vitro phosphorylation assays in absence (−) or presence (+) of T12 (50 μM). Reactions were subjected to SDS-PAGE, Western blot onto PVDF membrane and autoradiography, and further protein detected with anti-FLAG primary antibodies. Autoradiography and anti-FLAG® bands were quantified with WCIF IMAGEJ® software, and the normalized kinase activity estimated. Shown are normalized kinase activities. […] Samples were analyzed in triplicate and the data represents the Mean (±SEM) of three independent assays.
FLAG®-tagged GPBP was expressed using Bac-to-Bac® Baculovirus Expression System. […] Finally, purified protein was quantified with Bio-Rad Protein Assay and stored at −20° C. […]
Typically, about 270 ng of purified FLAG®-GPBP protein, either extracellular multimer or intracellular trimer, were incubated in presence or absence of T12 […] in a kinase assay buffer containing 25 mM disodium β-glycerophosphate, 8 mM MgCl2, 0.5 mM EDTA, 0.5 mM EGTA, 1 mM DTT, 5 mM MnCl2 during 10 min at 37° C. […] Then reactions were stopped with SDS-PAGE loading buffer and heat (95° C., 3 min) and analyzed by SDS-PAGE, electro-transference to PVDF membrane (Merck Millipore) and autoradiography. […]

[2] = tested on: A549 tumors with epithelial phenotype; conditions: T12 20 mg/kg/day in drinking water, alone or with doxorubicin 4 mg/kg/week i.p.; previously reported, WO/2014/006020; cited from earlier work

Structure (SMILES): COc1ccc(-c2ccc(-c3cccc(C)c3)c(C)c2)c(CCC(=O)O)c1 [T12, 3-[4″-methoxy-3,2′-dimethyl-(1,1′;4′,1″)terphenyl-2″-yl] propionic acid]
- normalized kinase activity of GPBP [1]: not intracellular GPBP trimers
- tumor growth (relative tumor volume) [2]: required the synergistic action of doxorubicin to efficiently inhibit tumor growth; also recorded: synergistic with doxorubicin
